This is an account of results in PMC6661766, “Antimicrobial, antioxidant and cytotoxic evaluation of diazenyl chalcones along with insights to mechanism of interaction by molecular docking studies” (BMC Chemistry, 2019).

SMILES strings stand for the structures. Values after ≈ are worked out from the molar mass of the structure shown. Read-outs that look alike come from different tables or passages of the source.

One data set has as its system fungal strains. Briefly: Antimicrobial serial tube dilution, ranges over fungal strains. Format: cell-based. The settings on record: read-out: IC50 against fungal strains. Here is the method: (§1) The synthesized diazenyl chalcones (C18 to C27) and controls (dyes A and E, and chalcone) were assessed for their antimicrobial activity by estimation of MIC and MBC/MFC values. […] The stock solutions of the test compounds and standard drugs having a concentration of 1000 µg ml^−1 were prepared by dissolving the used compounds in DMSO. The nutrient broth/Sabouraud dextrose broth was used for the serial dilution of the test compounds and referenced drugs for bacterial and fungal cultures, respectively. […] The size of the final inoculum in each test tube was taken as 5 × 10^5 CFU ml^−1. The incubation of the test and standard compounds of varying concentrations was done for 24 h at 37 ± 2 °C (bacterial culture) and for 48 h at 37 ± 2 °C (C. albicans) and for 7 d at 25 ± 2 °C (A. fumigatus). The diazenyl chalcones (C18–C27), were further evaluated for their bactericidal/fungicidal activity by estimation of MBC/MFC values. […] For proper mixing of culture media, the plates were shaken gently followed by incubation at the predefined temperature and time as stated earlier, followed by the visual inspection of the plates for signs of microbial growth.

The next data set relates to C. albicans. The data set is described as follows: Antimicrobial serial tube dilution, MIC and MFC. The class given is cell-based, Candida albicans MTCC 227.
The next data set relates to A. fumigatus. The data set is described as follows: Antimicrobial serial tube dilution, MIC and MFC. The class given is cell-based, Aspergillus fumigatus MTCC 2584.
Data set [1] has as its system HEK human embryonic kidney cells. The arrangement: method as in PMID 27302903. The settings on record: cited from earlier work.
The test system of data set [2] is A549 human lung cancer cell line. Briefly: MTT cytotoxicity assay, A549. Format: cell-based. The settings on record: Homo sapiens, A549; MTT, 48 h. As to the method:
(§2) The cell lines employed in the investigation were purchased from the National Centre for Cell Sciences (NCCS), Pune, India. The cell lines were cultured in DMEM fortified with 10% FBS, L-glutamine, sodium bicarbonate, and solution of antibiotics (streptomycin 100 μg ml^−1 + penicillin-100 U ml^−1). The culture of cell lines was stored under 5% CO2 incubation at 37 °C.
(§3) The compounds showing maximum activity (antimicrobial and antioxidant potential) were screened for cytotoxicity against A549 and HEK cell lines using MTT assay. Initially, 96-well microculture plate was seeded with 1 × 10^4 cells in 100 µl/well DMEM/MEM, supplemented with 10% FBS followed by incubation at a temperature of 37 °C for a period of 24 h under 5% CO2 atmosphere. After that, the test compounds and camptothecin were added to the cells to achieve a concentration of 10, 25, 50 and 100 µg. MTT reagent (10 µl) of concentration of 5 mg ml^−1 added to all the wells after the duration of 48 h. The plate was incubated further for 4 h followed by careful removal of supernatant from each well. To dissolve the formazan crystals, 100 µl of DMSO was added, and the ELISA reader was used to check the absorbance at 570 nm wavelength. In order to calculate the IC50 concentration, the following equation, i.e. A = Bx + C, was used. In this case, A = 50, while the values B and C values were obtained from the survival curve plot. This study was carried out in duplicate.

Data set [3] relates to HEK human embryonic kidney cells. Briefly: MTT cytotoxicity assay, HEK. The settings on record: 48 h. The class given is cell-based. As to the method:
as §2, §3

The nature of data set [4]: DPPH scavenging antioxidant assay.
For another data set, the system named is B. subtilis. The data set is described as follows: Antimicrobial serial tube dilution, MIC and MBC. Format: cell-based, Bacillus subtilis MTCC 2063. The settings on record: Bacillus subtilis.
For another data set, the system named is tested bacterial strains. Briefly: Antimicrobial serial tube dilution, ranges over several bacterial strains. The class given is cell-based. The settings on record: B. cereus, S. typhi and S. aureus. As to the method: as §1
The test system of a further data set is B. cereus. The data set is described as follows: Antimicrobial serial tube dilution, MIC and MBC. The settings on record: Bacillus cereus. The class given is cell-based, Bacillus cereus MTCC 1305.
The next data set concerns S. aureus. Briefly: Antimicrobial serial tube dilution, MIC and MBC. The class given is cell-based, Staphylococcus aureus MTCC 2901. The settings on record: Staphylococcus aureus.
In a further data set the test system is S. typhi. Briefly: Antimicrobial serial tube dilution, MIC and MBC. The class given is cell-based, Salmonella typhi MTCC 3216. The settings on record: Salmonella enterica, TYPHI.
The next data set deals with E. coli. Briefly: Antimicrobial serial tube dilution, MIC and MBC. Format: cell-based, Escherichia coli MTCC 1652.

A word on the IC50: it is the midpoint of a concentration-inhibition curve. A word on the MIC: it is the lowest concentration that inhibits growth of the organism. By MFC is commonly meant the lowest tested concentration that kills the fungus rather than only halting it. As to `OC(Cn1cncn1)(Cn1cncn1)c1ccc(F)cc1F` [Fluconazole, fluconazole, reference compound], in the data set on fungal strains, the IC50 was 7.81 to 15.6 µg/mL (≈ 25.5 to 51 µM). The MIC was found to be 7.81 µg/mL (≈ 25.5 µM) with C. albicans (Candida albicans; 48 h at 37 ± 2 °C; read-out: C. albicans MIC) and 15.6 µg/mL (≈ 51 µM) in the data set on A. fumigatus (Aspergillus fumigatus, 168 h; 7 d at 25 ± 2 °C; read-out: A. fumigatus MIC). For the same compound, the MFC with C. albicans (Candida albicans; read-out: C. albicans MFC) stood at 31.2 µg/mL (≈ 102 µM); in the data set on A. fumigatus (Aspergillus fumigatus; read-out: A. fumigatus MFC), 125 µg/mL (≈ 408 µM).
For `CC[C@@]1(O)C(=O)OCc2c1cc1n(c2=O)Cc2cc3ccccc3nc2-1` [Std, camptothecin, reference compound], in data set [1], the “HEK IC50” value was 9.0 [28] µg ml^−1. Besides, 8.7 µg/mL (≈ 25 µM) corresponded to half-maximal inhibition in [2] (IC50).
Broadly, the MBC is the lowest tested concentration that kills the bacteria rather than only halting them. Usually melting point stands for the temperature of the solid-liquid transition. As to `O=C(/C=C\c1ccco1)c1ccc(N=Nc2c(O)cccc2O)cc1` [Compound C-24, (2Z)-1-(4-((2,6-Dihydroxyphenyl)diazenyl)phenyl)-3-(furan-2-yl)prop-2-en-1-one], the melting point lay within 315 to 317 °C. The compound further displayed an IC50 in [3] of 280.4 ± 1.21 µg/mL (≈ 839 µM). In addition, the “IC50 DPPH” value in data set [4] is 15.88 µg/mL (≈ 47.5 µM). Further, in [4] (1.56 µg ml^−1), the “% inhibition of DPPH” value was found to be 24.16%. For the same compound, the “% inhibition of DPPH” value in [4] (3.12 µg ml^−1) is given as 26.13%. Also, in [4] (6.25 µg ml^−1), the “% inhibition of DPPH” value is given as 34.65%. In data set [4] (12.5 µg ml^−1), the “% inhibition of DPPH” value came to 54.71%. Besides, the “% inhibition of DPPH” value in data set [4] (25 µg ml^−1) is 77.38%. Also, the “% inhibition of DPPH” value in [4] (50 µg ml^−1) worked out at 96.46%. In addition, the “% inhibition of DPPH” value in data set [4] (100 µg ml^−1) is given as 99.17%. Besides, the “log IC50 DPPH” value in data set [4] (Fig. 1) is 1.201. In addition, in the data set on B. subtilis (24 h, read-out: B. subtilis MIC), the MIC was 31.2 µg/mL (≈ 93.5 µM). The MBC in the data set on B. subtilis (read-out: B. subtilis MBC) was 62.5 µg/mL (≈ 187 µM). Also, the MIC in the data set on C. albicans (Candida albicans, 48 h, read-out: C. albicans MIC) amounted to 62.5 µg/mL (≈ 187 µM). Also, in the data set with C. albicans (Candida albicans, read-out: C. albicans MFC), the MFC was determined as 125 µg/mL (≈ 374 µM). The compound also returned an IC50 in data set [2] of 109 ± 3.21 µg/mL (≈ 326 µM). Further, the MIC with A. fumigatus (Aspergillus fumigatus, 168 h, read-out: A. fumigatus MIC) was determined as 125 µg/mL (≈ 374 µM). Moreover, the MFC in the data set with A. fumigatus (Aspergillus fumigatus, read-out: A. fumigatus MFC) came to 125 µg/mL (≈ 374 µM). Besides, in the data set on tested bacterial strains, the MBC range was 15.62 to 31.25 µg/mL and the MIC range was 7.81 to 15.62 µg/mL. Further, in the data set with B. cereus (24 h, read-out: B. cereus MIC), the MIC turned out to be 15.6 µg/mL (≈ 46.7 µM). Further, in the data set with B. cereus (read-out: B. cereus MBC), the MBC amounted to 15.6 µg/mL (≈ 46.7 µM). The MIC in the data set with S. aureus (24 h, read-out: S. aureus MIC) came to 15.6 µg/mL (≈ 46.7 µM). Further, the MBC in the data set with S. aureus (read-out: S. aureus MBC) was 15.6 µg/mL (≈ 46.7 µM). Besides, the MIC in the data set on S. typhi (24 h, read-out: S. typhi MIC) was determined as 7.58 µg/mL (≈ 22.7 µM). Further, the MBC with S. typhi (read-out: S. typhi MBC) was 15.6 µg/mL (≈ 46.7 µM). Also, the “E. coli MIC” value with E. coli (24 h at 37 ± 2 °C) came out at 15.62 µg/mL. In the data set with E. coli (Escherichia coli, 24 h, read-out: E. coli MIC, 24 h at 37 ± 2 °C), the MIC lay within 7.81 to 15.6 µg/mL (≈ 23.4 to 46.7 µM). Moreover, the MBC with E. coli (Escherichia coli, read-out: E. coli MBC) came to 31.2 µg/mL (≈ 93.5 µM).
